Results as given in PubChem BioAssay AID1963868 (Molecular Pharmacology Branch, DTP, NCI, 2024).
Several values for one entry are separate records, joined by “and”; a condition that tells them apart may be missing. Identical values can stand only once.

Test system: KRAS PDC tumor spheroids (HUVEC+MSC), viability
Test: Anticancer human tumor 254851-301-R-J1-PDC patient-derived colon carcinoma cell line growth inhibition [KRAS2]
Details: for viability, T/C: stronger effect = lower value
Method in brief: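 KRAS-mutant tumor cells were grown as spheroids with HUVEC endothelial cells and human MSCs as stroma. Targeted agents were tested alone and with KRAS pathway inhibitors. Doses started at or near clinical Cmax, or 10 microM, descending half-log.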

[1] = curve of first compound, second compound 0.1 µM
[2] = curve of first compound, second compound 0.316 µM
[3] = curve of first compound, second compound 1 µM
[4] = curve of first compound, second compound 3.16 µM
[5] = curve of first compound, second compound 10 µM
[6] = second compound 0.1 µM, first compound 0.0316 µM
[7] = second compound 0.1 µM, first compound 0.1 µM
[8] = second compound 0.1 µM, first compound 0.316 µM
[9] = second compound 0.1 µM, first compound 1 µM
[10] = second compound 0.316 µM, first compound 0.0316 µM
[11] = second compound 0.316 µM, first compound 0.1 µM
[12] = second compound 0.316 µM, first compound 0.316 µM
[13] = second compound 0.316 µM, first compound 1 µM
[14] = second compound 1 µM, first compound 0.0316 µM
[15] = second compound 1 µM, first compound 0.1 µM
[16] = second compound 1 µM, first compound 0.316 µM
[17] = second compound 1 µM, first compound 1 µM
[18] = second compound 3.16 µM, first compound 0.0316 µM
[19] = second compound 3.16 µM, first compound 0.1 µM
[20] = second compound 3.16 µM, first compound 0.316 µM
[21] = second compound 3.16 µM, first compound 1 µM
[22] = second compound 10 µM, first compound 0.0316 µM
[23] = second compound 10 µM, first compound 0.1 µM
[24] = second compound 10 µM, first compound 0.316 µM
[25] = second compound 10 µM, first compound 1 µM
[26] = compound alone, run of 07/12/2021
[27] = compound alone, run of 07/19/2021
[28] = compound alone, run of 07/26/2021
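Further: spheroids exposed to compounds for seven days before readout.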
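Wherever viability, T/C is given: 100% = DMSO vehicle control luminescence of the spheroids.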

CC1(C)CCC(CN2CCN(c3ccc(C(=O)NS(=O)(=O)c4ccc(NCC5CCOCC5)c([N+](=O)[O-])c4)c(Oc4cnc5[nH]ccc5c4)c3)CC2)=C(c2ccc(Cl)cc2)C1 + COc1cc2nc(C)nc(NC(C)c3cc(N)cc(C(F)(F)F)c3)c2cc1OC1CCOC1
IC50 [1]: > 10 µM | IC50 [2]: > 10 µM | IC50 [3]: > 10 µM | IC50 [4]: 3.72 µM | IC50 [5]: 1.73 µM | viability, T/C [6]: 103% | viability, T/C [7]: 95% | viability, T/C [8]: 95.7% | viability, T/C [9]: 97.6% | viability, T/C (second compound 0.1 µM, first compound 3.16 µM): 91.2% | viability, T/C (second compound 0.1 µM, first compound 10 µM): 83.2% | viability, T/C [10]: 86.5% | viability, T/C [11]: 83.9% | viability, T/C [12]: 92% | viability, T/C [13]: 79.3% | viability, T/C (second compound 0.316 µM, first compound 3.16 µM): 88.6% | viability, T/C (second compound 0.316 µM, first compound 10 µM): 66.4% | viability, T/C [14]: 88.7% | viability, T/C [15]: 88.1% | viability, T/C [16]: 79.8% | viability, T/C [17]: 78.1% | viability, T/C (second compound 1 µM, first compound 3.16 µM): 74.9% | viability, T/C (second compound 1 µM, first compound 10 µM): 49.2% | viability, T/C [18]: 82.2% | viability, T/C [19]: 89.3% | viability, T/C [20]: 81.2% | viability, T/C [21]: 76.4% | viability, T/C (second compound 3.16 µM, first compound 3.16 µM): 53.3% | viability, T/C (second compound 3.16 µM, first compound 10 µM): 29.6% | viability, T/C [22]: 86.6% | viability, T/C [23]: 83.8% | viability, T/C [24]: 72.5% | viability, T/C [25]: 73.9% | viability, T/C (second compound 10 µM, first compound 3.16 µM): 24.2% | viability, T/C (second compound 10 µM, first compound 10 µM): 6.7%

CCN1CCN(Cc2ccc(Nc3ncc(F)c(-c4cc(F)c5nc(C)n(C(C)C)c5c4)n3)nc2)CC1 + CNCc1ccccc1-c1csc(C(C)Nc2nc(C)nc3cc(OC)c(OC)cc23)c1
IC50 [1]: 0.661 µM | IC50 [2]: 0.514 µM | IC50 [3]: 0.489 µM | IC50 [4]: < 0.00316 µM | IC50 [5]: < 0.00316 µM | viability, T/C (second compound 0.1 µM, first compound 0.00316 µM): 91.4% | viability, T/C (second compound 0.1 µM, first compound 0.01 µM): 94.5% | viability, T/C [6]: 76.8% | viability, T/C [7]: 69.1% | viability, T/C [8]: 70.9% | viability, T/C [9]: 40.4% | viability, T/C (second compound 0.316 µM, first compound 0.00316 µM): 110% | viability, T/C (second compound 0.316 µM, first compound 0.01 µM): 86.2% | viability, T/C [10]: 84% | viability, T/C [11]: 63.1% | viability, T/C [12]: 59.9% | viability, T/C [13]: 41% | viability, T/C (second compound 1 µM, first compound 0.00316 µM): 83.4% | viability, T/C (second compound 1 µM, first compound 0.01 µM): 83.6% | viability, T/C [14]: 81% | viability, T/C [15]: 62.6% | viability, T/C [16]: 63.1% | viability, T/C [17]: 35.8% | viability, T/C (second compound 3.16 µM, first compound 0.00316 µM): 42.2% | viability, T/C (second compound 3.16 µM, first compound 0.01 µM): 35.1% | viability, T/C [18]: 26.4% | viability, T/C [19]: 21.7% | viability, T/C [20]: 17.9% | viability, T/C [21]: 14.7% | viability, T/C (second compound 10 µM, first compound 0.00316 µM): 0.07% | viability, T/C (second compound 10 µM, first compound 0.01 µM): 0.09% | viability, T/C [22]: 0.09% | viability, T/C [23]: 0.06% | viability, T/C [24]: 0.07% | viability, T/C [25]: 0.11%

Cn1ncnc1[C@H]1c2n[nH]c(=O)c3cc(F)cc(c23)N[C@@H]1c1ccc(F)cc1
viability, T/C (compound 0.000316 µM): 102% [middle of 5 runs] | viability, T/C (compound 0.001 µM): 101% [middle of 5 runs] | viability, T/C (compound 0.00316 µM): 99.2% [middle of 5 runs] | viability, T/C (compound 0.01 µM): 98.7% [middle of 5 runs] | viability, T/C (compound 0.0316 µM): 101% [middle of 5 runs] | viability, T/C (compound 0.1 µM): 97.6% [middle of 5 runs] | IC50 (curve of compound): > 0.1 µM

CC(C)NCC(C(=O)N1CCN(c2ncnc3c2C(C)CC3O)CC1)c1ccc(Cl)cc1 (centres undefined)
viability, T/C (compound 0.0316 µM): 100% and 101% (3×) and 105% | viability, T/C (compound 0.1 µM): 103% [middle of 5 runs] | viability, T/C (compound 0.316 µM): 99.5% [middle of 5 runs] | viability, T/C (compound 1 µM): 104% [middle of 5 runs] | viability, T/C (compound 10 µM): 98.9% [middle of 5 runs] | IC50 (curve of compound): > 10 µM

C=CC(=O)N1CCN(c2nc(=O)n(-c3c(C)ccnc3C(C)C)c3nc(-c4c(O)cccc4F)c(F)cc23)C(C)C1 (centres undefined)
viability, T/C (compound 0.1 µM): 100% [middle of 17 runs] | IC50 [26]: > 10 µM | IC50 [27]: > 10 µM | IC50 [28]: > 10 µM

CC1OCC2(CCN(c3cnc(Sc4ccnc(N)c4Cl)c(N)n3)CC2)C1N (centres undefined)
viability, T/C (compound 0.0316 µM): 91.3% and 92.3% and 111% | viability, T/C (compound 0.1 µM): 96.8% [middle of 19 runs] | viability, T/C (compound 1 µM): 82.1% [middle of 19 runs] | IC50 [26]: > 10 µM | IC50 [27]: > 10 µM | IC50 [28]: > 10 µM and 3.88 µM | IC50 (curve of compound): > 10 µM
